pIC50: −log10 of the molar value.
Legend:
[1] = system: HIV-1 reference strain NL4-3; assay: BiCycle assay (MT-2 then TZM-bl cells); assay type: cell-based; details: Human immunodeficiency virus 1, NL43, TZM-bl; for IC50: read-out: BiCycle IC50 nM
Outline: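 MT-2 cells were infected with NL4-3 in the presence of five-fold compound dilutions. After 72 h, the supernatant was passed to TZM-bl cells. Two days later, luciferase luminescence was read and IC50 calculated, giving a readout that spans the whole replication cycle.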

[2] = system: Peripheral blood mononuclear cells (PBMC); assay type: cell-based; details: human, 7 days
Outline: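 Healthy-donor PBMC stimulated 2 days with 5 µg/mL PHA, then seeded at 1x10^5 cells/well in medium with 20 IU/mL IL-2 and exposed to compound for 7 days. Viability measured by MTS (4 h, OD 490 nm). TD50 interpolated from dose versus percent mortality relative to untreated cells.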

HIV-1 integrase = biological target: T1, HIV-1 integrase (Human immunodeficiency virus type 1 group M subtype B, UniProt P04585); assay: HIV-integrase assay (strand transfer kit); assay type: biochemical
T1 construct: Full-length recombinant HIV-1 integrase protein was loaded onto the DS DNA substrate; purchased Xpress Bio Co EZ-1700
Method: The integrase assay was performed using the HIV-1 integrase assay kit (Xpress Bio Co, catalog number EZ-1700, Thurmont, MD) according to the manufacturer's instructions. In this assay the streptavidin-coated 96-well plates were used and coated with a double stranded HIV-1 LTR U5 donor substrate (DS) DNA containing an end-labeled biotin. Full-length recombinant HIV-1 integrase protein was loaded onto the DS DNA substrate. After, the compounds were added in the concentration 5 - 1500 µM, and then a different double-stranded target substrate (TS) DNA containing a 3'-end modification was added to the reaction mixture. The HIV-1 integrase cleaved the terminal two bases from the exposed 3'-end of the HIV-1 LTR DS DNA and then catalyzed a strand-transfer recombination reaction to integrate the DS DNA into the TS DNA. The products of the reaction were detected colorimetrically using an HRP-labeled antibody directed against TS 3'-end modification. […] The percentage of DMSO was fixed at 2.5% v/v in all samples. The absorbance at 450 nm was recorded with an iMark™ Microplate Absorbance Reader (Bio-Rad Laboratories). The absorbance values were corrected from the mean blank absorbance (reaction buffer negative control). To calculate the IC50 values, the experimental data were fitted in a logarithm scale using Origin software (Dose response fitting).

HeLa cells = assay: HeLa Proliferation assay (CellTiter Glo); assay type: cell-based; details: 72 hours
Outline: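 HeLa cells in phenol red-free DMEM + 10% FBS plated at 2000 cells/well, recovered 4 h, then exposed to compounds for 72 h at 37 °C, 5% CO2. Viability read by CellTiter Glo luminescence.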

Row | SMILES | IC50 [1] | EC50 ([1]; read-out: Mean EC50 (nM)) | Proliferation assay PBMC TD50 [2] | TD50 [2] | pIC50 (HIV-1 integrase) | fold increase in IN IC50 values in comparison to NC Inhibition IC50 values (HIV-1 integrase) | Proliferation assay HELA TD50 (HeLa cells)
1 | COc1ccnc(-c2nc(O)c(O)c(C(=O)N[C@H](C)C3CCCCC3)n2)c1 [Compound 28, (R)-N-(1-cyclohexylethyl)-5,6-dihydroxy-2-(4-methoxypyridin-2-yl)pyrimidine-4-carboxamide] | 40.5 nM | 41 nM | 2700 nM | 2700 nM | 4.08 | 3.8 fold | 2.8609 µM
2 | CCNCc1ccc(-c2nc(O)c(O)c(C(=O)N[C@H](C)C3CCCCC3)n2)nc1 [Compound 60, (R)-N-(1-cyclohexylethyl)-2-(5-((ethylamino)methyl)pyridin-2-yl)-5,6-dihydroxypyrimidine-4-carboxamide] | 694 nM |  | 1600 nM |  | 5.00 | 2.9 fold | 6.4286 µM
